Consider one compound from the NIST ThermoML archive (doi:10.1021/acs.jced.8b00578).

Numbers after ± are expanded uncertainties.

The conditions of data set [1]: Crystal; DSC.
A short description of data set [2]: Molar enthalpy of transition or fusion. The following applies: Crystal; DSC.

As for `O=C(O)c1cc2ccccc2cc1O` [3-hydroxy-2-naphthoic acid], the Triple point temperature in data set [1] turned out to be 494.4 ± 0.81 K. The “Molar enthalpy of transition or fusion” value in data set [2] is 27.7 ± 1.3 kJ/mol.
